This note sets out measurements from patent publication US20260207602A1, “EGFR INHIBITORS” (Blueprint Medicines Corporation, priority 2022, published 2026).

The target of this test is T1, EGFR L858R (Homo sapiens, UniProt P00533, L858R).
T1 construct: purchased SignalChem E10-122BG
T1 sequence (P00533 25-1210 L858R): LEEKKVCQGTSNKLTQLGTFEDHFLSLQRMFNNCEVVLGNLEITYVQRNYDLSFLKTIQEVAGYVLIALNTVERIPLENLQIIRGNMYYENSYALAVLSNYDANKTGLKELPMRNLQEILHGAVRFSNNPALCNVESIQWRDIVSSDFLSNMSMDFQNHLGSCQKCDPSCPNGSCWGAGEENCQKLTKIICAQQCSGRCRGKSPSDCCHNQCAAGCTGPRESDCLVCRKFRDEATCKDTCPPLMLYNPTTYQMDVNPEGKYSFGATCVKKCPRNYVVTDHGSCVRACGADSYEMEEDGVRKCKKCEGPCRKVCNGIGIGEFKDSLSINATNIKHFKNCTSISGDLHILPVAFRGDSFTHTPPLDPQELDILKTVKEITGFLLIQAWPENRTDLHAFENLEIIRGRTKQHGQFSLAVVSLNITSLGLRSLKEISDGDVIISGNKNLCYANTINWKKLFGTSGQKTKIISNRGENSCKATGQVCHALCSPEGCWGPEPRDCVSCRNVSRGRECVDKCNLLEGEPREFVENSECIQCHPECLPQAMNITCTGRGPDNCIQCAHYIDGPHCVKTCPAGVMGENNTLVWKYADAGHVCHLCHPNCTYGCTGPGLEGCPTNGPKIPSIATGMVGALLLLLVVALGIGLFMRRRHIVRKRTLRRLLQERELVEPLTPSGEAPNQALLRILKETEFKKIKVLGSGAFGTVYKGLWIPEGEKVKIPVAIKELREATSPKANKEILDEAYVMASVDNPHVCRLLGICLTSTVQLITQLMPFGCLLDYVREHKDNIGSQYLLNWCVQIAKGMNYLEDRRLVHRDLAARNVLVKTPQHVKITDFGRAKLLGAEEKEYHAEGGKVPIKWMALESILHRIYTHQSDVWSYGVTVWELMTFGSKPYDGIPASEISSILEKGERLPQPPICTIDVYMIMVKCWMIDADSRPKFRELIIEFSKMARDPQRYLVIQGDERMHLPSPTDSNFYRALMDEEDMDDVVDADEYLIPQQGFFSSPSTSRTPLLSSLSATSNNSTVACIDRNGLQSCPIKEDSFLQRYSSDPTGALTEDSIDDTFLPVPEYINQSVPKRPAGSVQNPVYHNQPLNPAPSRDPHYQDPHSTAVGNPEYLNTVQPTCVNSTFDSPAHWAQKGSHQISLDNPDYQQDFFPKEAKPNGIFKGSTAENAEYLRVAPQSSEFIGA
As to the kind of experiment: Biochemical EGFR inhibition assay (Caliper mobility shift), EGFR L858R. To be noted: biochemical Caliper mobility shift assay, EGFR L858R enzyme; read-out: Enz EGFR L858R IC50. The procedure: Inhibitory effects of the compounds of the disclosure were measured in biochemical assays that measure the phosphorylation activity of EGFR enzyme phosphorylates 2.5 micromolar 5-FAM-[…]-CONH2 peptide substrate (ProfilerPro Kinase Peptide Substrate 22, PerkinElmer, Part #760366) in the presence of adenosine-5′-triphosphate (ATP) and varying concentrations of the test compound in 100 mM 2-[4-(2-hydroxyethyl)piperazin-1-yl]ethanesulfonic acid (HEPES), pH 7.5, 10 mM MgCl2, 0.015% Brij-35, 1 mM dithiothreitol (DTT), 1.0% dimehylsulfoxide (DMSO). Assays were performed at 1.0 mM ATP or at ATP Km of the EGFR enzymes. Reactions proceeded until between 10% to 20% total peptides were phosphorylated at room temperature (25° C.) and were terminated with 35 mM 2,2′,2″,2′″-(ethane-1,2-diyldinitrilo)tetraacetic acid (EDTA). Product was detected using the Caliper mobility shift detection method where the phosphorylated peptide (product) and substrate were electrophoretically separated and measured. Percent activity was plotted against log concentration of compound and points to generate an apparent IC50. The following enzyme forms of • EGFR were examples that were used in these assays: • EGFR WT (SignalChem, E10-112G) • EGFR L858R (SignalChem, E10-122BG) • EGFR (d746-750) (SignalChem, E10-122JG) • EGFR L858R C797S (SignalChem, E10-122ZG) • EGFR (d746-750) C797S (SignalChem, E10-122TG)
In the case of `C[C@@H](Oc1cc(-c2cnn(C)c2)cc2ncnc(Nc3ccc4ncsc4c3)c12)[C@H]1CNCCO1` (single isomer, unassigned) [Example 208], the IC50 is at most 10 nM.

Take `Cn1cc(-c2cc(O[C@H]3CCNC[C@@H]3F)c3c(Nc4ccc5ncsc5c4)ncnc3c2)cn1` (single isomer, unassigned) [Example 347]: the IC50 is at most 10 nM.

In the case of `CN(C)C[C@@H](Oc1cc(-c2cnn(C)c2)cc2ncnc(Nc3ccc4ncsc4c3)c12)C(F)F` (single isomer, unassigned) [Example 152], the IC50 is at most 10 nM.

In the case of `CN1C[C@H](F)C[C@H](Oc2cc(-c3cnn(C)c3)cc3ncnc(Nc4ccc5ncsc5c4)c23)C1` (single isomer, unassigned) [Example 337], the IC50 was at most 10 nM.

For the compound `CN1CC[C@@H](Nc2cc3c(Nc4ccc5ncsc5c4)ncnc3cc2-c2ccn(C)n2)[C@H](F)C1` (single isomer, unassigned) [Example 328], the IC50 was at most 10 nM.

Consider `C[C@@H](Oc1cc(-c2cnn(CC(C)(C)O)c2)cc2ncnc(Nc3ccc4ncsc4c3)c12)C1COC1` (single isomer, unassigned) [Example 128], for which the IC50 is at most 10 nM.

Turning to `CN1CC[C@@H](Oc2cc(-c3cnn(C)c3)cc3ncnc(Nc4ccc5ncsc5c4)c23)[C@@H](F)C1` (single isomer, unassigned) [Example 341], the IC50 was at most 10 nM.

In the case of `CN1CC[C@H](Oc2cc(-c3cnn(C)c3)cc3ncnc(Nc4ccc5ncsc5c4F)c23)C1` [Example 16, (S)-7-fluoro-N-(7-(1-methyl-1H-pyrazol-4-yl)-5-((1-methylpyrrolidin-3-yl)oxy)quinazolin-4-yl)benzo[d]thiazol-6-amine], the IC50 was in the range of 10.1 to 50 nM.

For `Cn1cc(-c2cc(O[C@@H]3CC[C@@H]3O)c3c(Nc4ccc5ncsc5c4)ncnc3c2)cn1` (single isomer, unassigned) [Example A52], the IC50 is at most 10 nM.

With `C[C@@H](Oc1cc(-c2cnn(C)c2)cc2ncnc(Nc3ccc4ncsc4c3F)c12)[C@H]1CCOC1` (single isomer, unassigned) [Example 89], the IC50 was at most 10 nM.

In the case of `COc1nn(C)cc1-c1cc(O[C@@H](C)C(=O)N(C)C)c2c(Nc3ccc4ncsc4c3F)ncnc2c1` (single isomer, unassigned) [Example 288], the IC50 was at most 10 nM.

For the compound `C[C@H](CO)n1cc(-c2cc(O[C@H](C)C3COC3)c3c(Nc4ccc5ncsc5c4)ncnc3c2)cn1` (single isomer, unassigned) [Example 298], the IC50 is at most 10 nM.

Regarding `CN1CC[C@H](Oc2cc(-c3cnn(C)c3)cc3ncnc(Nc4ccc5ncsc5c4)c23)[C@@H](F)C1` (single isomer, unassigned) [Example 345], the IC50 was at most 10 nM.

Turning to `COC[C@H](C)Oc1cc(N2CCN(C(C)C)C2=O)cc2ncnc(Nc3ccc4ncsc4c3)c12` (single isomer, unassigned) [Example 119], the IC50 was at most 10 nM.

As for `COc1nn(C)cc1-c1cc(O[C@H](C)C2COC2)c2c(Nc3ccc4ncsc4c3)ncnc2c1` (single isomer, unassigned) [Example 171], the IC50 is at most 10 nM.

With `CC(Oc1cc(-c2cn[nH]c2)cc2ncnc(Nc3ccc4ncsc4c3)c12)C1COC1` (single isomer, unassigned) [Example 123], the 50% inhibitory concentration (IC50) was at most 10 nM.

For the compound `COc1nn(C)cc1-c1cc(O[C@H]2CCNC[C@@H]2F)c2c(Nc3ccc4ncsc4c3)ncnc2c1` (single isomer, unassigned) [Example 361], the IC50 is at most 10 nM.

As to `C[C@H](CN(C)C)Oc1cc(N2CC[C@@H](C(C)(C)O)C2)cc2ncnc(Nc3ccc4ncsc4c3)c12` (single isomer, unassigned) [Example 156], the IC50 was at most 10 nM.

For the compound `C[C@@H](Oc1cc(-c2cnn(C)c2)cc2ncnc(Nc3ccc4ncsc4c3)c12)C(F)F` (single isomer, unassigned) [Example 53], the concentration for half-maximal inhibition (IC50) was at most 10 nM.

`C[C@@H](Oc1cc(-c2cnn(C)c2)cc2ncnc(Nc3ccc4ncsc4c3)c12)[C@H]1CN(C)CCO1` (single isomer, unassigned) [Example 210]: the IC50 is at most 10 nM.

On to `C[C@@H](Oc1cc(-c2cnn(C)c2)cc2ncnc(Nc3ccc4ncsc4c3F)c12)C1(C)COC1` (single isomer, unassigned) [Example 87], for which the IC50 was at most 10 nM.

As for `C[C@@H](Oc1cc(-c2cnn(C(C)(C)CO)c2)cc2ncnc(Nc3ccc4ncsc4c3)c12)C1COC1` (single isomer, unassigned) [Example 292], the IC50 was at most 10 nM.

For the compound `COCC[C@@H](C)Oc1cc(-c2cnn(C)c2)cc2ncnc(Nc3ccc4ncsc4c3F)c12` (single isomer, unassigned) [Example 109], the IC50 is at most 10 nM.

Turning to `COc1nn(C)cc1-c1cc(O[C@H](C)C2COC2)c2c(Nc3ccc4ncsc4c3F)ncnc2c1` (single isomer, unassigned) [Example 79], the IC50 is at most 10 nM.

For the compound `C[C@H](Oc1cc(-c2cnn(C)c2)cc2ncnc(Nc3ccc4ncsc4c3F)c12)C(=O)N1CCOCC1` (single isomer, unassigned) [Example 283], the IC50 was at most 10 nM.

As to `CC[C@@H](Oc1cc(-c2cnn(C)c2)cc2ncnc(Nc3ccc4ncsc4c3F)c12)C1COC1` (single isomer, unassigned) [Example 93], the IC50 was at most 10 nM.

For the compound `C[C@@H](Oc1cc(-c2cnn(C)c2)cc2ncnc(Nc3ccc4ncsc4c3F)c12)C(=O)N(C)C` (single isomer, unassigned) [Example 280], the IC50 was at most 10 nM.

Take `C[C@H](CO)Oc1cc(-c2cnn(C)c2)cc2ncnc(Nc3ccc4ncsc4c3F)c12` (single isomer, unassigned) [Example 290]: the IC50 is at most 10 nM.

As for `CN1CC[C@H](Nc2cc3c(Nc4ccc5ncsc5c4)ncnc3cc2-c2ccn(C)n2)[C@H](F)C1` (single isomer, unassigned) [Example A06, N4-(benzo[d]thiazol-6-yl)-N6-((3S,4R)-3-fluoro-1-methylpiperidin-4-yl)-7-(1-methyl-1H-pyrazol-3-yl)quinazoline-4,6-diamine or N4-(benzo[d]thiazol-6-yl)-N6-((3R,4S)-3-fluoro-1-methylpiperidin-4-yl)-7-(1-methyl-1H-pyrazol-3-yl)quinazoline-4,6-diamine], the IC50 was at most 10 nM.

By IC50 is commonly meant the point on the concentration scale where inhibition reaches its midpoint.
